Results reported in publication PMC7619385 (ACS infectious diseases, 2025).
Like-named read-outs stand apart in the source and are kept apart here.

Assays:
NLuc::LmxCLK1 = NLuc::LmxCLK1 (Leishmania mexicana, UniProt E9AMP2); test: cell-based; type: cell-based; details: for Target occupancy Run 1 / Target occupancy Run 2 / Target occupancy Average: 10 µM compound, tracer SV366, promastigotes; for Target occupancy Average: mean of two experiments
Procedure, shortened: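 NanoBRET tracer displacement in live cells expressing NLuc-tagged CLK1, test compounds at 10 µM fixed, 1% DMSO final. Acceptor/donor emission (610/460 nm) ratio gives mBRET, converted to blank-corrected probe occupancy (%); probe KD from single-site saturation binding fits.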

LmxCLK1 = target: T1, LmxCLK1 (Leishmania mexicana, UniProt E9AMP2); test: biochemical; type: binding
T1 sequence (E9AMP2 1-422): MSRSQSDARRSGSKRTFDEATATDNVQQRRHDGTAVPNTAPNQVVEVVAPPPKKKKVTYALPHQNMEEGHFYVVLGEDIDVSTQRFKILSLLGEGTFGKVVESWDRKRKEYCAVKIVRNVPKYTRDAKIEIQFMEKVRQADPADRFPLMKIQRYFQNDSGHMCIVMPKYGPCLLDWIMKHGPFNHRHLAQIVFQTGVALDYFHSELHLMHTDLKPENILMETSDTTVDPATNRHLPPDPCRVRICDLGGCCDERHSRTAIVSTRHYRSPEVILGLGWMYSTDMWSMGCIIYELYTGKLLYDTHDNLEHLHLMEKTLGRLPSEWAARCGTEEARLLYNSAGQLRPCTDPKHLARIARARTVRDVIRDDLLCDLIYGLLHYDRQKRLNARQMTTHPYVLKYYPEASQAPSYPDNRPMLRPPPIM

[1] = read-out: Target occupancy Average
[2] = read-out: Target occupancy Run 1
[3] = read-out: Target occupancy Run 2
[4] = DSF, 10 µM compound, 2 µM LmxCLK1, Run 1, read-out: ΔTm Run 1
[5] = DSF, 10 µM compound, 2 µM LmxCLK1, Run 2, read-out: ΔTm Run 2
[6] = DSF, 10 µM compound, 2 µM LmxCLK1, mean of two runs, read-out: ΔTm Average
[7] = DSF, 10 µM compound, 2 µM LmxCLK1, Run 1
[8] = DSF, 10 µM compound, 2 µM LmxCLK1, Run 2
[9] = DSF, 10 µM compound, 2 µM LmxCLK1, mean of two runs

Compound | receptor occupancy at 10 µM (NLuc::LmxCLK1; [1]) [%] | receptor occupancy at 10 µM (NLuc::LmxCLK1; [2]) [%] | receptor occupancy at 10 µM (NLuc::LmxCLK1; [3]) [%] | ΔTm at 10 µM (LmxCLK1; [4]) [°C] | ΔTm at 10 µM (LmxCLK1; [5]) [°C] | ΔTm at 10 µM (LmxCLK1; [6]) [°C] | Target occupancy Run 1 (NLuc::LmxCLK1) [%] | Target occupancy Run 2 (NLuc::LmxCLK1) [%] | Target occupancy Average (NLuc::LmxCLK1) | ΔTm Run 1 (LmxCLK1; [7]) [°C] | ΔTm Run 2 (LmxCLK1; [8]) [°C] | ΔTm Average (LmxCLK1; [9]) [°C] | ΔTm Average (LmxCLK1) | ΔTm Run 1 (LmxCLK1) | ΔTm Run 2 (LmxCLK1)
Cc1c(Cn2c(C)nc3c(C(=O)O)cc(N4CCOCC4)cc32)cccc1C(F)(F)F [GSK2636771] | -2.2 | 2.9 | -7.3 | 0.2 | 0.1 | 0.1 | – | – | – | – | – | – | – | – | –
O=C1Nc2ccc(I)cc2/C1=C/c1cc(Br)c(O)c(Br)c1 [GW5074] | – | – | – | – | – | – | -7.5 | -6.2 | -6.8% | 0.0 | -0.4 | -0.2 | – | – | –
COc1ccc2c(c1)c(C1=C(c3c[nH]c4ccccc34)C(=O)NC1=O)cn2CCCN(C)C [Go 6983] | – | – | – | – | – | – | -11.0 | -14.1 | -12.6% | 0.6 | 0.0 | 0.3 | – | – | –
O=C(c1ccc(Nc2nccc(-c3cc4ccccc4s3)n2)cc1)N1CCC(N2CCCC2)CC1 [IKK-16 (IKK Inhibitor VII)] | – | – | – | – | – | – | 10.2 | -10.2 | 0.0% | 1.9 | 1.6 | 1.8 | – | – | –
Cc1[nH]c2ccccc2c1C1=C(NCCc2ccc(F)cc2)C(=O)N(C)C1=O [IM-12] | – | – | – | – | – | – | -0.3 | -14.5 | -7.4% | – | – | – | -0.2 | -0.2 | -0.3
CC(C)n1nc(-c2ccc3oc(N)nc3c2)c2c(N)ncnc21 [INK 128 (MLN0128)] | – | – | – | – | – | – | -0.8 | 0.1 | -0.3% | 0.6 | 0.5 | 0.5 | – | – | –
C=CS(=O)(=O)NC1CCN(C(=O)CNc2cc(I)c(Cl)cc2OC)CC1 [K-Ras(G12C) inhibitor 9] | – | – | – | – | – | – | -21.1 | -10.0 | -15.5% | 0.3 | -0.6 | -0.1 | – | – | –
O=c1cc(-c2cccc3c2Sc2ccccc2S3)oc(N2CCOCC2)c1 [KU-55933 (ATM Kinase Inhibitor)] | – | – | – | – | – | – | 4.0 | -21.9 | -9.0% | 0.6 | 0.2 | 0.4 | – | – | –
Cc1cnc(NC(=O)Nc2cc(Br)c(C)cc2OC[C@@H]2CNCCO2)cn1 [LY2603618] | -11.8 | 7 | -30.5 | 0 | -0.4 | -0.2 | – | – | – | – | – | – | – | – | –
CN(C[C@@H]1COCCO1)S(=O)(=O)Nc1ccc2ccc3ncc(-c4cnn(C)c4)cc3c(=O)c2c1 [MK-2461] | -2.7 | -9.3 | 3.8 | 0 | 0.2 | 0.1 | – | – | – | – | – | – | – | – | –
O=C(O)[C@]1(Cc2cccc(Nc3nccs3)n2)CC[C@@H](Oc2cccc(Cl)c2F)CC1 [MK-5108 (VX-689)] | – | – | – | – | – | – | -2.8 | 1.0 | -0.9% | -0.1 | -0.2 | -0.1 | – | – | –
COC(=O)c1ccc2c(c1)NC(=O)/C2=C(\Nc1ccc(N(C)C(=O)CN2CCN(C)CC2)cc1)c1ccccc1 [Nintedanib (BIBF 1120)] | – | – | – | – | – | – | -1.8 | -11.3 | -6.6% | 0.3 | 0.2 | 0.2 | – | – | –
COc1cccc2cc(-c3nc([C@H]4CC[C@H](C(=O)O)CC4)n4ncnc(N)c34)[nH]c12 [OSI-027] | -8.9 | 5.5 | -23.2 | 0.1 | -0.4 | -0.2 | – | – | – | – | – | – | – | – | –
C#Cc1cccc(Nc2ncnc3cc(OCCOC)c(OCCO)cc23)c1 [OSI-420] | – | – | – | – | – | – | -6.8 | 3.7 | -1.5% | 0.2 | 0.1 | 0.1 | – | – | –
O=C(Nc1ccc(OC(F)(F)F)cc1)c1sccc1NCc1ccnc2ccccc12 [OSI-930] | 0.1 | -0.4 | 0.6 | 0.4 | 0 | 0.2 | – | – | – | – | – | – | – | – | –
COc1cccc(-c2cc(=O)c3ccccc3o2)c1N [PD98059] | – | – | – | – | – | – | -16.6 | -0.7 | -8.6% | 0.0 | -0.2 | -0.1 | – | – | –
O=C(NOCC1CC1)c1ccc(F)c(F)c1Nc1ccc(I)cc1Cl [PD184352 (CI-1040)] | – | – | – | – | – | – | -2.3 | -19.9 | -11.1% | 0.1 | 0.1 | 0.1 | – | – | –
COc1ccc(-c2cc3c(C)nc(N)nc3n([C@H]3CC[C@H](OCCO)CC3)c2=O)cn1 [PF-04691502] | – | – | – | – | – | – | -3.4 | -25.8 | -14.6% | – | – | – | 0.2 °C | 0.3 °C | 0.1 °C
O=C(/C=C/c1ccc2ccccc2n1)c1ccncc1 [PFK15] | – | – | – | – | – | – | -10.7 | -9.2 | -10.0% | – | – | – | 0.1 °C | 0.2 °C | 0.1 °C
CC(C)(C)n1nc(-c2ccc(Cl)cc2)c2c(N)ncnc21 [PP2] | – | – | – | – | – | – | -3.1 | 0.5 | -1.3% | – | – | – | 0 °C | 0.2 °C | -0.2
Nc1ncnc2c1c(-c1cnc3[nH]ccc3c1)nn2C1CCCC1 [PP121] | – | – | – | – | – | – | -0.4 | -14.8 | -7.6% | 0.9 | 0.7 | 0.8 | – | – | –
COc1ccc(Cl)cc1NC(=O)Nc1cc(C)nc2ccccc12 [PQ 401] | – | – | – | – | – | – | -4.0 | 1.2 | -1.4% | 0.0 | -0.2 | -0.1 | – | – | –
CCOc1cc2ncc(C#N)c(Nc3ccc(F)c(Cl)c3)c2cc1NC(=O)/C=C/CN(C)C [Pelitinib (EKB-569), Pelitinib] | – | – | – | 9.1 | 12.5 | 10.8 ± 1.7 | – | – | negligible target engagement | – | – | – | – | – | –
COc1cc(Nc2ncc(F)c(Nc3ccc4c(n3)NC(=O)C(C)(C)O4)n2)cc(OC)c1OC [R406] | – | – | – | – | – | – | 6.2 | -5.8 | 0.2% | – | – | – | 0.4 °C | 0.4 °C | 0.3 °C
CNC(=O)c1cc(Oc2ccc(NC(=O)Nc3ccc(Cl)c(C(F)(F)F)c3)c(F)c2)ccn1 [Regorafenib (BAY 73-4506)] | – | – | – | – | – | – | -4.0 | -5.3 | -4.6% | 0.1 | -0.3 | -0.1 | – | – | –
Cn1cc(C2=C(c3ccc(Cl)cc3Cl)C(=O)NC2=O)c2ccccc21 [SB216763] | -4.4 | 0.9 | -9.6 | 0.1 | -0.1 | 0 | – | – | – | – | – | – | – | – | –
Cc1[nH]c(/C=C2\C(=O)Nc3ccc(S(=O)(=O)N(C)c4cccc(Cl)c4)cc32)c(C)c1C(=O)N1CCN(C)CC1 [SU11274] | -6.7 | -7.3 | -6 | -0.1 | -0.2 | -0.2 | – | – | – | – | – | – | – | – | –
O=C1c2ccc(Nc3ccc(F)cc3F)cc2CCc2ccc(OC[C@H](O)CO)cc21 [Skepinone-L] | -1.4 | 6.5 | -9.2 | 0 | 0.1 | 0.1 | – | – | – | – | – | – | – | – | –
CNC(=O)c1ccccc1Nc1nc(Nc2ccc(N3CCOCC3)cc2OC)ncc1Cl [TAE226 (NVP-TAE226)] | – | – | – | – | – | – | -26.7 | -0.7 | -13.7% | 0.2 | -0.1 | 0.0 | – | – | –
